The source of these data is US9018414B2, “Substituted 3-phenylpropionic acids and the use thereof” (Bayer Intellectual Property GmbH, priority 2009, dated 2015).

Each structure is given as a SMILES string.

In this test the test system is recombinant guanylate cyclase reporter cell line. As to the kind of experiment: Action at recombinant guanylate cyclase reporter cell line (CHO reporter cell). Format: cell-based. The following applies: MEC = minimal effective concentration; read-out: sGC-activating activity in the CHO reporter cell in vitro, MEC. The procedure:
The cellular action of the compounds according to the invention is determined at a recombinant guanylate cyclase reporter cell line, as described in F. Wunder et al., Anal. Biochem. 339, 104-112 (2005).
With `C[C@H]([C@H](C(=O)Nc1cc(CCC(=O)O)ccc1Cl)c1ccc(CC(F)(F)F)cc1)C(F)(F)F` (racemic) [Example 5, 3-[4-Chloro-3-({4,4,4-trifluoro-3-methyl-2-[4-(2,2,2-trifluoroethyl)phenyl]butanoyl}amino)phenyl]-propanoic acid], the minimal effective concentration amounted to 0.003 µM.

Regarding `C[C@H]([C@H](C(=O)Nc1cc(C2CC2C(=O)O)ccc1F)c1ccc(Cl)cc1)C(F)(F)F` (single isomer, unassigned) [Example 53], the minimal effective concentration was 0.3 µM.

`CCC[C@@H](CC(=O)O)c1ccc(Cl)c(NC(=O)[C@H](c2ccc(Cl)cc2)[C@@H](C)C(F)(F)F)c1` (single isomer, unassigned) [Example 82]: the minimal effective concentration came to 0.00023 µM.

`C[C@H]([C@H](C(=O)Nc1cc([C@H](CC(=O)O)C(F)(F)F)ccc1Cl)c1ccc(Cl)cc1)C(F)(F)F` (single isomer, unassigned) [Example 84]: the minimal effective concentration was determined as 0.001 µM.

Consider `CC[C@@H](CC(=O)O)c1ccc(Cl)c(NC(=O)[C@H](c2ccc(Cl)cc2)[C@@H](C)C(F)(F)F)c1` (single isomer, unassigned) [Example 87], for which the minimal effective concentration came to 0.001 µM.

Turning to `C[C@@H](Cc1ccc(Cl)c(NC(=O)C(c2ccc(Cl)cc2)C2CCC(F)(F)C2)c1)C(=O)O` (single isomer, unassigned) [Example 105], the minimal effective concentration was found to be 0.03 µM.

On to `CCC(C)(Cc1ccc(Cl)c(NC(=O)[C@H](c2ccc(Cl)cc2)[C@@H](C)C(F)(F)F)c1)C(=O)O` (single isomer, unassigned; (+)) [Example 71], for which the minimal effective concentration is 0.01 µM.

Turning to `C[C@H]([C@H](C(=O)Nc1cc(CCC(=O)O)ccc1Cl)c1ccc(C(C)(C)C)cc1)C(F)(F)F` [Example 2, (+)-3-(3-{[(2S,3R)-2-(4-tert-butylphenyl)-4,4,4-trifluoro-3-methylbutanoyl]amino}-4-chlorophenyl)-propanoic acid], the minimal effective concentration stood at 0.0003 µM.

In the case of `CCc1ccc([C@@H](C(=O)Nc2cc(C(C)CC(=O)O)ccc2Cl)[C@@H](C)C(F)(F)F)cc1` (stereo partly drawn) [Example 7, 3-(4-chloro-3-{[(2S,3R)-2-(4-ethylphenyl)-4,4,4-tri-fluoro-3-methylbutanoyl]amino}phenyl)butanoic acid], the minimal effective concentration is 0.0002 µM.

Take `C[C@@H](CC(=O)O)c1ccc(Cl)c(NC(=O)C(c2ccc(Cl)cc2)C2CCCC2(F)F)c1` (stereo partly drawn) [Example 10, (3S)-3-(4-chloro-3-{[(4-chlorophenyl)(2,2-difluoro-cyclopentyl)acetyl]amino}phenyl)butanoic acid]: the minimal effective concentration worked out at 0.0052 µM.

For `C[C@H]([C@H](C(=O)Nc1cc(C2(CC(=O)O)CC2)ccc1F)c1ccc(Cl)cc1)C(F)(F)F` [Example 18, (+)-[1-(3-{[(2S,3R)-2-(4-Chlorophenyl)-4,4,4-trifluoro-3-methylbutanoyl]amino}-4-fluorophenyl)-cyclopropyl]acetic acid], the minimal effective concentration turned out to be 0.01 µM.

In the case of `C[C@H](C(C(=O)Nc1cc(C2(CC(=O)O)CCC2)ccc1Cl)c1ccc(Cl)cc1)C(F)(F)F` (stereo partly drawn) [Example 28, [1-(4-Chloro-3-{[(3R)-2-(4-chlorophenyl)-4,4,4-trifluoro-3-methylbutanoyl]amino}-phenyl)cyclobutyl]acetic acid], the minimal effective concentration is 0.001 µM.

Turning to `CC[C@@H](Cc1ccc(Cl)c(NC(=O)[C@H](c2ccc(Cl)cc2)[C@@H](C)C(F)(F)F)c1)C(=O)O` [Example 30, (+)-(2S)-2-(4-Chloro-3-{[(2S,3R)-2-(4-chlorophenyl)-4,4,4-trifluoro-3-methylbutanoyl]amino}-benzyl)butanoic acid], the minimal effective concentration was 0.0003 µM.

Take `CC(Cc1ccc(F)c(NC(=O)C(c2ccc(Cl)cc2)[C@@H](C)C(F)(F)F)c1)C(=O)O` (stereo partly drawn) [Example 37, 3-(3-{[(3R)-2-(4-Chlorophenyl)-4,4,4-trifluoro-3-methylbutanoyl]amino}-4-fluorophenyl)-2-methylpropanoic acid]: the minimal effective concentration amounted to 0.01 µM.

On to `CC(C(=O)O)C(C)c1ccc(F)c(NC(=O)[C@H](c2ccc(Cl)cc2)[C@@H](C)C(F)(F)F)c1` (stereo partly drawn) [Example 50, threo-3-(3-{[(2S,3R)-2-(4-chlorophenyl)-4,4,4-tri-fluoro-3-methylbutanoyl]amino}-4-fluorophenyl)-2-methylbutanoic acid], for which the minimal effective concentration is 0.03 µM.

For the molecule `CCCC(CC(=O)O)c1ccc(Cl)c(NC(=O)[C@H](c2ccc(Cl)cc2)[C@@H](C)C(F)(F)F)c1` (stereo partly drawn) [Example 81, 3-(4-Chloro-3-{[(2S,3R)-2-(4-chlorophenyl)-4,4,4-trifluoro-3-methylbutanoyl]amino}phenyl)-hexanoic acid], the minimal effective concentration amounted to 0.0003 µM.

For the molecule `C[C@H]([C@H](C(=O)Nc1cc(CC(C)(C)C(=O)O)ccc1Cl)c1ccc(Cl)cc1)C(F)(F)F` [Example 89], the minimal effective concentration was found to be 0.003 µM.

For `C[C@H]([C@H](C(=O)Nc1cc(C2(CC(=O)O)CCC2)ccc1Cl)c1ccc(Cl)cc1)C(F)(F)F` [Example 90], the minimal effective concentration stood at 0.001 µM.

In the case of `C[C@H]([C@H](C(=O)Nc1cc(C2(CC(=O)O)CC2)ccc1Cl)c1ccc(Cl)cc1)C(F)(F)F` [Example 96], the minimal effective concentration was determined as 0.001 µM.

On to `CC(C(C(=O)Nc1cc(C[C@H](C)C(=O)O)ccc1Cl)c1ccc(CC(F)(F)F)cc1)C(F)(F)F` (stereo partly shown) [Example 99], for which the minimal effective concentration was 0.01 µM.

For `C[C@H]([C@H](C(=O)Nc1cc(C[C@H](C)C(=O)O)ccc1Cl)c1ccc(C2CC(F)(F)C2)cc1)C(F)(F)F` [Example 100], the minimal effective concentration came to 0.003 µM.

Consider `C[C@H]([C@H](C(=O)Nc1cc(C2(CC(=O)O)CC(F)(F)C2)ccc1Cl)c1ccc(Cl)cc1)C(F)(F)F` [Example 102], for which the minimal effective concentration turned out to be 0.001 µM.
